Test results published in ChEMBL document CHEMBL5260833, “An overview of quinazolines: Pharmacological significance and recent developments” (Eur J Med Chem, 2018).
In brackets after ≈: the same amount, converted by molar mass. Blank lines part the entries; values can stand above or below the compound they belong to.

Key:
Escherichia coli [1] = test: Antibacterial activity against Escherichia coli assessed as zone of inhibition at 100 ppm; assay type: functional; conditions: read-out: IZ
Staphylococcus aureus [2] = test: Antibacterial activity against Staphylococcus aureus assessed as zone of inhibition at 100 ppm; assay type: functional; conditions: read-out: IZ
Homo sapiens [3] = species: Homo sapiens; test: Immunosuppressive activity in human T cell; assay type: functional, organism-based
Homo sapiens [4] = species: Homo sapiens; test: Immunosuppressive activity in human B cell; assay type: functional, organism-based
Rattus norvegicus = test: Antiinflammatory activity in rat at assessed as reduction in paw edema at 200 mg/kg relative to control; assay type: functional
[5] = Antiviral activity against Gomphrena mosaic virus relative to control; assay type: functional, Gomphrena mosiac virus; design: concentration or dose not given beside the values
[6] = CNS toxicity in po dosed mouse assessed as depression in CNS; assay type: organism-based; conditions: in vivo
Mus musculus = test: Analgesic activity in […] albino mouse at 20 mg/kg, po measured after 2 hrs by Tail-Flick technique relative to control; assay type: functional
Staphylococcus aureus [7] = test: Antimicrobial activity against Staphylococcus aureus assessed as bacterial growth inhibition; assay type: functional
Micrococcus luteus = test: Antimicrobial activity against Micrococcus luteus assessed as bacterial growth inhibition; assay type: functional
[8] = test system: Staphylococcus saprophyticus; test: Antimicrobial activity against Staphylococcus saprophyticus assessed as bacterial growth inhibition; assay type: functional
[9] = test system: Staphylococcus epidermidis; test: Antimicrobial activity against Staphylococcus epidermidis assessed as bacterial growth inhibition; assay type: functional
Bacillus subtilis = test: Antimicrobial activity against Bacillus subtilis assessed as bacterial growth inhibition; assay type: functional
Escherichia coli [10] = test: Antimicrobial activity against Escherichia coli assessed as bacterial growth inhibition; assay type: functional
Klebsiella oxytoca = test: Antimicrobial activity against Klebsiella oxytoca assessed as bacterial growth inhibition; assay type: functional
Proteus vulgaris = test: Antimicrobial activity against Proteus vulgaris assessed as bacterial growth inhibition; assay type: functional
Proteus mirabilis = test: Antimicrobial activity against Proteus mirabilis assessed as bacterial growth inhibition; assay type: functional
Citrobacter freundii = test: Antimicrobial activity against Citrobacter freundii assessed as bacterial growth inhibition; assay type: functional
Pseudomonas aeruginosa = test: Antimicrobial activity against Pseudomonas aeruginosa assessed as bacterial growth inhibition; assay type: functional
Candida albicans = test: Antimicrobial activity against Candida albicans assessed as bacterial growth inhibition; assay type: functional
Mycolicibacterium phlei = test: Antimicrobial activity against Mycobacterium phlei assessed as bacterial growth inhibition; assay type: functional

SMILES: COc1cc(/C=N/n2c(C)nc3ccc(I)cc3c2=O)cc(Br)c1O
zone of inhibition at 100 µg/mL (Escherichia coli [1]): 14 mm
zone of inhibition at 100 µg/mL (Staphylococcus aureus [2]): 16 mm

IC50 (Homo sapiens [3]): 5.67 nM
IC50 (Homo sapiens [4]): 8.08 nM
SMILES: C#CCN(Cc1ccc2nc(C)[nH]c(=O)c2c1)c1ccc(C(=O)N[C@@H](C[C@H](F)C(=O)O)C(=O)O)cc1

SMILES: COc1cc(/C=N/n2c(C)nc3ccc(Br)cc3c2=O)cc(Br)c1O
zone of inhibition at 100 µg/mL (Escherichia coli [1]): 14 mm
zone of inhibition at 100 µg/mL (Staphylococcus aureus [2]): 16 mm

IC50 (Homo sapiens [3]): 13.4 nM
IC50 (Homo sapiens [4]): 27.5 nM
SMILES: CN(Cc1cnc2nc(N)nc(N)c2n1)c1ccc(C(=O)N[C@@H](CCC(=O)O)C(=O)O)cc1 [METHOTREXATE]

SMILES: COc1ccc(/C=C/c2nc3ccccc3c(=O)n2-c2cc(C(=O)O)ccc2Cl)cc1
inhibition in vivo at 200 mg/kg (Rattus norvegicus): 62.2%

SMILES: COc1cc(N/N=C(C)/N=N/n2cnc3ccccc3c2=O)ccc1O
Activity [5]: 15%

SMILES: COc1cc(/C=N/n2c(C)nc3ccc(Br)cc3c2=O)cc(I)c1O
zone of inhibition at 100 µg/mL (Escherichia coli [1]): 14 mm
zone of inhibition at 100 µg/mL (Staphylococcus aureus [2]): 16 mm

SMILES: Cc1nc2ccc(I)cc2c(=O)n1/N=C/c1cc(I)cc(I)c1O
zone of inhibition at 100 µg/mL (Escherichia coli [1]): 14 mm
zone of inhibition at 100 µg/mL (Staphylococcus aureus [2]): 16 mm

SMILES: CC(=O)Nc1ccc2nc(CSCC(NC(C)=O)C(=O)O)n(-c3ccccc3C)c(=O)c2c1 (stereo not given)
LD50 [6]: > 1000 mg/kg

SMILES: Cc1nc2ccc(Br)cc2c(=O)n1/N=C/c1cc(Cl)cc(Cl)c1O
zone of inhibition at 100 µg/mL (Escherichia coli [1]): 14 mm
zone of inhibition at 100 µg/mL (Staphylococcus aureus [2]): 16 mm

SMILES: Cc1nc2ccc(I)cc2c(=O)n1/N=C/c1cc(Br)cc(Br)c1O
zone of inhibition at 100 µg/mL (Escherichia coli [1]): 14 mm
zone of inhibition at 100 µg/mL (Staphylococcus aureus [2]): 16 mm

SMILES: Cc1nc2ccc(Br)cc2c(=O)n1/N=C/c1cc(I)cc(I)c1O
zone of inhibition at 100 µg/mL (Escherichia coli [1]): 14 mm
zone of inhibition at 100 µg/mL (Staphylococcus aureus [2]): 16 mm

SMILES: CC(=O)Nc1ccc2nc(CF)n(-c3ccccc3CO)c(=O)c2c1
LD50 [6]: > 1000 mg/kg

SMILES: CC/C(C)=N/n1c(S)nc2sc3c(c2c1=O)CCCC3
Activity (Mus musculus): 72%

SMILES: CC(=O)Nc1ccc2nc(CO)n(-c3ccccc3C)c(=O)c2c1
LD50 [6]: > 1000 mg/kg

SMILES: CC(=O)Nc1ccc2nc(CF)n(-c3ccccc3C)c(=O)c2c1
LD50 [6]: > 1000 mg/kg

SMILES: CC(/N=N/n1cnc2ccccc2c1=O)=N\Nc1ccc(O)cc1
Activity [5]: 15%

SMILES: CC(=O)Nc1ccc2nc(CS(C)(=O)=O)n(-c3ccccc3C)c(=O)c2c1
LD50 [6]: > 1000 mg/kg

SMILES: CCN(CC)C(=S)Nn1c(SC)nc2ccccc2c1=O
Activity (Mus musculus): 67%

MIC (Staphylococcus aureus [7]): 125 µg/mL (≈ 263 µM)
MIC (Micrococcus luteus): 125 µg/mL (≈ 263 µM)
MIC [8]: 125 µg/mL (≈ 263 µM)
MIC [9]: 125 µg/mL (≈ 263 µM)
MIC (Bacillus subtilis): 125 µg/mL (≈ 263 µM)
MIC (Escherichia coli [10]): 125 µg/mL (≈ 263 µM)
MIC (Klebsiella oxytoca): 125 µg/mL (≈ 263 µM)
MIC (Proteus vulgaris): 125 µg/mL (≈ 263 µM)
MIC (Proteus mirabilis): 125 µg/mL (≈ 263 µM)
MIC (Citrobacter freundii): 125 µg/mL (≈ 263 µM)
MIC (Pseudomonas aeruginosa): 125 µg/mL (≈ 263 µM)
MIC (Candida albicans): 125 µg/mL (≈ 263 µM)
MIC (Mycolicibacterium phlei): 125 µg/mL (≈ 263 µM)
SMILES: O=c1c2ccc([N+](=O)[O-])cc2nc(/C=C/c2ccc(Cl)cc2)n1-c1ccc(OCC2CO2)cc1 (stereo not given)

SMILES: CC(/N=N/n1cnc2ccccc2c1=O)=N\Nc1ccc(C)cc1
Activity [5]: 15%

SMILES: Cc1nc2ccc(I)cc2c(=O)n1/N=C/c1cc(Cl)cc(Cl)c1O
zone of inhibition at 100 µg/mL (Escherichia coli [1]): 14 mm
zone of inhibition at 100 µg/mL (Staphylococcus aureus [2]): 16 mm

SMILES: CCC(CC)=NNC1=Nc2ccccc2C(=O)C1c1ccccc1 (stereo not given)
Activity (Mus musculus): 72%

SMILES: Cc1nc2ccccc2c(=O)n1NC(=S)N1CCCC1
Activity (Mus musculus): 65%

SMILES: Cc1nc2ccc(Br)cc2c(=O)n1/N=C/c1cc(Br)cc(Br)c1O
zone of inhibition at 100 µg/mL (Escherichia coli [1]): 14 mm
zone of inhibition at 100 µg/mL (Staphylococcus aureus [2]): 16 mm

SMILES: CCC(CC)=NNC1=Nc2ccccc2C(=O)C1c1ccc(OC)cc1 (stereo not given)
Activity (Mus musculus): 64%

SMILES: CCN(CC)C(=S)Nn1c(-c2ccccc2)nc2ccccc2c1=O
Activity (Mus musculus): 58%
